The results in this text go back to ChEMBL document CHEMBL1123199, “Synthesis and structure-activity relationships of naftifine-related allylamine antimycotics” (1986).

Test [1] relates to Sporothrix schenckii. The test is described as follows: Antifungal activity measured against Sporothrix schenck ii. It is filed as functional.
Test [2] deals with Cavia porcellus. Kind of test: In vivo antifungal activity by topical treatment of guinea pig dermatophytosis caused by Trichophyton mentagrophytes at a dose of 0.5%. The format is functional.
Test [3] deals with Aspergillus fumigatus. Kind of test: Antifungal activity measured against Aspergillus fumigatus. The format is functional.
Another test concerns Epidermophyton floccosum. Kind of test: Antifungal activity against Epidermophyton floccosum. The format is functional.
The subject of a further test is Microsporum canis. The test is described as follows: Antifungal activity against Microsporum canis. It is filed as functional.
Test [4] has as its system Cavia porcellus. The test is described as follows: In vivo antifungal activity by topical treatment of guinea pig dermatophytosis caused by Trichophyton mentagrophytes at a dose of 2%. It is filed as functional.
A short description of test [5]: Antifungal activity against Trichophyton mentagrophytes. It is filed as functional, Arthroderma benhamiae. The settings on record: Trichophyton benhamiae.
Test [6] has as its system Candida parapsilosis. The test is described as follows: Antifungal activity was measured against Candida parapsilosis. The settings on record: Lodderomyces parapsilosis.
For test [7], the system named is Cavia porcellus. Kind of test: In vivo antifungal activity by topical treatment of guinea pig dermatophytosis caused by Trichophyton mentagrophytes at a dose of 0.1%. The format is functional.
Test [8] concerns Aspergillus fumigatus. The test is described as follows: Antifungal activity was measured against Aspergillus fumigatus. It is filed as functional.
Test [9] deals with Candida parapsilosis. Kind of test: Antifungal activity against Candida parapsilosis. The following applies: Lodderomyces parapsilosis. The format is functional.
The subject of test [10] is Trichophyton benhamiae. The test is described as follows: Antifungal activity measured against Trichophyton mentagrophytes. It is filed as functional, Arthroderma benhamiae.
In test [11] the test system is Sporothrix schenckii. Kind of test: Antifungal activity was measured against Sporothrix schenck ii. The format is functional.
Test [12] relates to Trichophyton benhamiae. Kind of test: ~ Antifungal activity was measured against Trichophyton mentagrophytes. It is filed as functional, Arthroderma benhamiae.

Converted amounts (≈) assume the structure as drawn. Some results are limits rather than exact numbers.

By MIC is commonly meant the least concentration at which growth counts as inhibited. In the case of `CN(C/C=C/c1ccccc1)Cc1cccc2ccccc12` [NAFTIFINE], the MIC with Sporothrix schenckii [1] came to 1.6 µg/mL (≈ 5.57 µM); in the test on Aspergillus fumigatus [3], 12.5 µg/mL (≈ 43.5 µM); against Epidermophyton floccosum, 0.1 µg/mL (≈ 0.348 µM); against Microsporum canis it was 0.1 µg/mL (≈ 0.348 µM); in test [5], 0.05 µg/mL (≈ 0.174 µM); in the test on Candida parapsilosis [6] it was 1.6 µg/mL (≈ 5.57 µM). For the same compound, the Activity came to 88% in the test with Cavia porcellus [2], 100% in the test with Cavia porcellus [4] and 35% in the test with Cavia porcellus [7].
In the case of `ON(C/C=C/c1ccccc1)Cc1cccc2ccccc12`, the MIC in the test on Sporothrix schenckii [1] was above 100 µg/mL; in the test on Aspergillus fumigatus [8], above 100 µg/mL; with Microsporum canis it was 50 µg/mL (≈ 173 µM); in the test on Candida parapsilosis [9], above 100 µg/mL; in the test with Trichophyton benhamiae [10], 12.5 µg/mL (≈ 43.2 µM).
In the case of `CCOC(=O)/C=C/C=C/CN(C)Cc1cccc2ccccc12`, the MIC is above 100 µg/mL against Aspergillus fumigatus [3]; 3.1 µg/mL (≈ 10 µM) against Epidermophyton floccosum; 3.1 µg/mL (≈ 10 µM) against Microsporum canis; above 100 µg/mL against Candida parapsilosis [9]; 100 µg/mL (≈ 323 µM) against Sporothrix schenckii [11]; below 1.6 µg/mL against Trichophyton benhamiae [10].
As to `CN(C/C=C/c1ccccc1Cl)Cc1cccc2ccccc12`, the minimal inhibitory concentration (MIC) is 25 µg/mL (≈ 77.7 µM) with Sporothrix schenckii [1]; above 100 µg/mL with Aspergillus fumigatus [3]; 3.1 µg/mL (≈ 9.63 µM) against Epidermophyton floccosum; below 1.6 µg/mL in the test on Microsporum canis; above 100 µg/mL against Candida parapsilosis [9]; below 1.6 µg/mL with Trichophyton benhamiae [12].
